Reference: patent US20130281467A1, “NOVEL MICROBICIDES” (SYNGENTA PARTICIPATIONS AG, priority 2010, published 2013)
Each block holds one compound with its values, some of them ahead of it.

Legend:
[1] = system: Glomerella lagenarium (Colletotrichum lagenarium); experiment: Fungicidal activity against Glomerella lagenarium (Colletotrichum lagenarium) / liquid culture (anthracnose); assay type: cell-based; details: Colletotrichum orbiculare, 3-4 days after application, read-out: disease control (inhibition of growth, photometrically)
Protocol: (§1) Fungicidal Activity Against Glomerella lagenarium (Colletotrichum lagenarium)/Liquid Culture (Anthracnose) Conidia of the fungus from cryogenic storage were directly mixed into nutrient broth (PDB potato dextrose broth). After placing a (DMSO) solution of test compound into a microtiter plate (96-well format), the nutrient broth containing the fungal spores was added. The test plates were incubated at 24° C. and the inhibition of growth was measured photometrically 3-4 days after application.

Gaeumannomyces graminis = experiment: Fungicidal activity against Gaeumannomyces graminis / liquid culture (take-all of cereals); assay type: cell-based; details: 4-5 days after application, read-out: disease control (inhibition of growth, photometrically)
Protocol: (§2) Fungicidal Activity Against Gaeumannomyces graminis/Liquid Culture (Take-all of Cereals) Mycelial fragments of the fungus from cryogenic storage were directly mixed into nutrient broth (PDB potato dextrose broth). After placing a (DMSO) solution of test compound into a microtiter plate (96-well format), the nutrient broth containing the fungal spores iss added. The test plates were incubated at 24° C. and the inhibition of growth was determined photometrically 4-5 days after application.

[2] = system: Mycosphaerella arachidis (Cercospora arachidicola); experiment: Fungicidal activity against Mycosphaerella arachidis (Cercospora arachidicola) / liquid culture (early leaf spot); assay type: cell-based; details: 4-5 days after application, read-out: disease control (inhibition of growth, photometrically)
Protocol: as §2, with “Mycosphaerella arachidis (Cercospora arachidicola)/Liquid” for “Gaeumannomyces graminis/Liquid”, “(Early Leaf Spot) Conidia” for “(Take-all of Cereals) Mycelial fragments”, “was” for “iss”

[3] = system: Blumeria graminis f. Sp. tritici (Erysiphe graminis f. sp. tritici); experiment: Fungicidal activity against Blumeria graminis f. sp. tritici / wheat / leaf disc preventative (powdery mildew on wheat); assay type: in vivo; details: foliar, wheat leaf segments, inoculated 1 day after application, compared to untreated, read-out: disease control
Protocol: Fungicidal Activity Against Blumeria graminis f. Sp. tritici (Erysiphe graminis f. sp. tritici)/Wheat/Leaf Disc Preventative (Powdery Mildew on Wheat)
Wheat leaf segments cv. Kanzler were placed on agar in a multiwell plate (24-well format) and sprayed with the formulated test compound diluted in water. The leaf disks were inoculated by shaking powdery mildew infected plants above the test plates 1 day after application. The inoculated leaf disks were incubated at 20° C. and 60% rh under a light regime of 24 h darkness followed by 12 h light/12 h darkness in a climate chamber and the activity of a compound was assessed as percent disease control compared to untreated when an appropriate level of disease damage appears on untreated check leaf segments (6-8 days after application).

[4] = system: Botryotinia fuckeliana (Botrytis cinerea); experiment: Fungicidal activity against Botryotinia fuckeliana (Botrytis cinerea) / liquid culture (gray mould); assay type: cell-based; details: 3-4 days after application, read-out: disease control (inhibition of growth, photometrically)
Protocol: as §1, with “Botryotinia fuckeliana (Botrytis cinerea)/Liquid” for “Glomerella lagenarium (Colletotrichum lagenarium)/Liquid”, “(Gray Mould)” for “(Anthracnose)”, “(Vogels” for “(PDB potato dextrose”, “determined” for “measured”

[5] = system: Phaeosphaeria nodorum (Septoria nodorum); experiment: Fungicidal activity against Phaeosphaeria nodorum (Septoria nodorum) / wheat / leaf disc preventative (glume blotch); assay type: in vivo; details: Parastagonospora nodorum, foliar, wheat leaf segments, inoculated 2 days after application, compared to untreated, read-out: disease control
Protocol: Fungicidal Activity Against Phaeosphaeria nodorum (Septoria nodorum)/Wheat/Leaf Disc Preventative (Glume Blotch) Wheat leaf segments cv. Kanzler were placed on agar in a multiwell plate (24-well format) and sprayed with the formulated test compound diluted in water. The leaf disks were inoculated with a spore suspension of the fungus 2 days after application. The inoculated test leaf disks were incubated at 20° C. and 75% rh under a light regime of 12 h light/12 h darkness in a climate cabinet and the activity of a compound was assessed as percent disease control compared to untreated when an appropriate level of disease damage appears in untreated check leaf disks (5-7 days after application).

[6] = system: Monographella nivalis (Microdochium nivale); experiment: Fungicidal activity against Monographella nivalis (Microdochium nivale) / liquid culture (foot rot cereals); assay type: cell-based; details: 4-5 days after application, read-out: disease control (inhibition of growth, photometrically)
Protocol: as §2, with “Monographella nivalis (Microdochium nivale)/Liquid” for “Gaeumannomyces graminis/Liquid”, “(Foot Rot” for “(Take-all of”, “Conidia” for “Mycelial fragments”, “was” for “iss”

Pyrenophora teres = experiment: Fungicidal activity against Pyrenophora teres / barley / leaf disc preventative (net blotch); assay type: in vivo; details: foliar, barley leaf segments, inoculated 2 days after application, compared to untreated, read-out: disease control
Protocol: Fungicidal Activity Against Pyrenophora teres/Barley/Leaf Disc Preventative (Net Blotch) Barley leaf segments cv. Hasso were placed on agar in a multiwell plate (24-well format) and sprayed with the formulated test compound diluted in water. The leaf segments were inoculated with a spore suspension of the fungus 2 days after application. The inoculated leaf segments were incubated at 20° C. and 65% rh under a light regime of 12 h light/12 h darkness in a climate cabinet and the activity of a compound was assessed as disease control compared to untreated when an appropriate level of disease damage appears in untreated check leaf segments (5-7 days after application).

[7] = system: Puccinia recondita f. sp. tritici; experiment: Fungicidal activity against Puccinia recondita f. sp. tritici / wheat / leaf disc preventative (brown rust); assay type: in vivo; details: foliar, wheat leaf segments, inoculated 1 day after application, compared to untreated, read-out: disease control
Protocol: Fungicidal Activity Against Puccinia recondita f. sp. tritici/Wheat/Leaf Disc Preventative (Brown Rust) Wheat leaf segments cv. Kanzler were placed on agar in multiwell plates (24-well format) and sprayed with the formulated test compound diluted in water. The leaf disks were inoculated with a spore suspension of the fungus 1 day after application. The inoculated leaf segments were incubated at 19° C. and 75% rh under a light regime of 12 h light/12 h darkness in a climate cabinet and the activity of a compound was assessed as percent disease control compared to untreated when an appropriate level of disease damage appears in untreated check leaf segments (7-9 days after application).

[8] = system: Thanatephorus cucumeris (Rhizoctonia solani); experiment: Fungicidal activity against Thanatephorus cucumeris (Rhizoctonia solani) / liquid culture (foot rot, damping-off); assay type: cell-based; details: 3-4 days after application, read-out: disease control (inhibition of growth, photometrically)
Protocol: Fungicidal Activity Against Thanatephorus cucumeris (Rhizoctonia solani)/Liquid Culture (Foot Rot, Damping-Off) Mycelia fragments of a newly grown liquid culture of the fungus were directly mixed into nutrient broth (PDB potato dextrose broth). After placing a (DMSO) solution of the test compounds into a microtiter plate (96-well format), the nutrient broth containing the fungal material was added. The test plates were incubated at 24° C. and the inhibition of growth was determined photometrically 3-4 days after application.

[9] = system: Mycosphaerella graminicola (Septoria tritici); experiment: Fungicidal activity against Mycosphaerella graminicola (Septoria tritici) / liquid culture (Septoria blotch); assay type: cell-based; details: Zymoseptoria tritici, 4-5 days after application, read-out: disease control (inhibition of growth, photometrically)
Protocol: as §2, with “Mycosphaerella graminicola (Septoria tritici)/Liquid” for “Gaeumannomyces graminis/Liquid”, “(Septoria Blotch) Conidia” for “(Take-all of Cereals) Mycelial fragments”, “was” for “iss”

Compound: N#Cc1cccc(Cc2cccc(-c3ncc4c(n3)CCOC4)n2)c1 [Compound 8]
melting point: 206 to 207 °C

Compound: CO/N=C1\CC(C)(C)Cc2nc(-c3cccc(Cc4ccccc4OC)n3)ncc21 [Compound 10]
melting point: 239 to 241 °C

Compound: CC1(C)CCc2cnc(-c3cccc(Cc4ccc(Cl)cc4)n3)nc2C1 [Compound 12]
inhibition at 200 ppm [2]: ≥ 80%
inhibition at 200 ppm [4]: ≥ 80%
melting point: 183 to 184 °C

Compound: Cc1ccccc1Cc1cccc(-c2ncc3c(n2)CC(C)(C)CC3)n1 [Compound 15]
inhibition at 200 ppm [8]: ≥ 80%
inhibition at 200 ppm [1]: ≥ 80%
inhibition at 200 ppm [2]: ≥ 80%
inhibition at 200 ppm [4]: ≥ 80%
pest or weed control at 200 ppm [5]: ≥ 80%
inhibition at 200 ppm [6]: ≥ 80%
pest or weed control at 200 ppm (Pyrenophora teres): ≥ 80%
inhibition at 200 ppm [9]: ≥ 80%
melting point: 259 to 260 °C

Compound: COc1ccc(OC)c(Cc2cccc(-c3ncc4c(n3)CCOC4)n2)c1 [Compound 22]
inhibition at 200 ppm [1]: ≥ 80%
inhibition at 200 ppm (Gaeumannomyces graminis): ≥ 80%
pest or weed control at 200 ppm [3]: ≥ 80%
inhibition at 200 ppm [4]: ≥ 80%
pest or weed control at 200 ppm [5]: ≥ 80%
pest or weed control at 200 ppm (Pyrenophora teres): ≥ 80%
inhibition at 200 ppm [9]: ≥ 80%
pest or weed control at 200 ppm [7]: ≥ 80%
melting point: 286 to 288 °C

Compound: COc1ccc(Cc2cccc(-c3ncc4c(n3)CCCCC4)n2)cc1 [Compound 35]
inhibition at 200 ppm [8]: ≥ 80%
inhibition at 200 ppm [1]: ≥ 80%
inhibition at 200 ppm (Gaeumannomyces graminis): ≥ 80%
inhibition at 200 ppm [2]: ≥ 80%
pest or weed control at 200 ppm [3]: ≥ 80%
inhibition at 200 ppm [4]: ≥ 80%
pest or weed control at 200 ppm [5]: ≥ 80%
inhibition at 200 ppm [6]: ≥ 80%
pest or weed control at 200 ppm (Pyrenophora teres): ≥ 80%
inhibition at 200 ppm [9]: ≥ 80%
pest or weed control at 200 ppm [7]: ≥ 80%

Compound: COc1ccc(Cc2cccc(-c3ncc4c(n3)CC(C)(C)CC4)n2)cc1 [Compound 37]
inhibition at 200 ppm [8]: ≥ 80%
inhibition at 200 ppm [1]: ≥ 80%
inhibition at 200 ppm (Gaeumannomyces graminis): ≥ 80%
inhibition at 200 ppm [2]: ≥ 80%
pest or weed control at 200 ppm [3]: ≥ 80%
inhibition at 200 ppm [4]: ≥ 80%
pest or weed control at 200 ppm [5]: ≥ 80%
inhibition at 200 ppm [6]: ≥ 80%
pest or weed control at 200 ppm (Pyrenophora teres): ≥ 80%
inhibition at 200 ppm [9]: ≥ 80%
pest or weed control at 200 ppm [7]: ≥ 80%

Compound: COc1ccc(Cc2cccc(-c3ncc4c(n3)CCCC4)n2)cn1 [Compound 41]
inhibition at 200 ppm [8]: ≥ 80%
inhibition at 200 ppm [1]: ≥ 80%
inhibition at 200 ppm (Gaeumannomyces graminis): ≥ 80%
inhibition at 200 ppm [2]: ≥ 80%
pest or weed control at 200 ppm [3]: ≥ 80%
inhibition at 200 ppm [4]: ≥ 80%
pest or weed control at 200 ppm [5]: ≥ 80%
inhibition at 200 ppm [6]: ≥ 80%
pest or weed control at 200 ppm (Pyrenophora teres): ≥ 80%
inhibition at 200 ppm [9]: ≥ 80%
pest or weed control at 200 ppm [7]: ≥ 80%

Compound: COc1ccc(Cc2cccc(-c3ncc4c(n3)CC(C)(C)CC4)n2)cn1 [Compound 42]
inhibition at 200 ppm [8]: ≥ 80%
inhibition at 200 ppm [1]: ≥ 80%
inhibition at 200 ppm (Gaeumannomyces graminis): ≥ 80%
inhibition at 200 ppm [2]: ≥ 80%
pest or weed control at 200 ppm [3]: ≥ 80%
inhibition at 200 ppm [4]: ≥ 80%
pest or weed control at 200 ppm [5]: ≥ 80%
inhibition at 200 ppm [6]: ≥ 80%
pest or weed control at 200 ppm (Pyrenophora teres): ≥ 80%
inhibition at 200 ppm [9]: ≥ 80%
pest or weed control at 200 ppm [7]: ≥ 80%

Compound: COc1ccc(C(C)c2cccc(-c3ncc4c(n3)CCCC4)n2)nc1 (centres unmarked) [Compound 44]
inhibition at 200 ppm [8]: ≥ 80%
inhibition at 200 ppm [1]: ≥ 80%
inhibition at 200 ppm (Gaeumannomyces graminis): ≥ 80%
inhibition at 200 ppm [2]: ≥ 80%
pest or weed control at 200 ppm [3]: ≥ 80%
inhibition at 200 ppm [4]: ≥ 80%
pest or weed control at 200 ppm [5]: ≥ 80%
inhibition at 200 ppm [6]: ≥ 80%
pest or weed control at 200 ppm (Pyrenophora teres): ≥ 80%
inhibition at 200 ppm [9]: ≥ 80%
pest or weed control at 200 ppm [7]: ≥ 80%

Second part, led by results:

melting point: 213 to 215 °C
Compound: CO/N=C1\CCCc2nc(-c3cccc(Cc4ccccc4)n3)ncc21 [Compound 9]
inhibition at 200 ppm [1]: ≥ 80%
inhibition at 200 ppm (Gaeumannomyces graminis): ≥ 80%
inhibition at 200 ppm [2]: ≥ 80%
pest or weed control at 200 ppm [3]: ≥ 80%
inhibition at 200 ppm [4]: ≥ 80%
pest or weed control at 200 ppm [5]: ≥ 80%
inhibition at 200 ppm [6]: ≥ 80%
pest or weed control at 200 ppm (Pyrenophora teres): ≥ 80%
pest or weed control at 200 ppm [7]: ≥ 80%

melting point: 272 to 273 °C
Compound: CC1(C)CCc2cnc(-c3cccc(Cc4ccccc4Cl)n3)nc2C1 [Compound 13]
inhibition at 200 ppm [8]: ≥ 80%
inhibition at 200 ppm [1]: ≥ 80%
inhibition at 200 ppm [2]: ≥ 80%
inhibition at 200 ppm [4]: ≥ 80%
pest or weed control at 200 ppm [5]: ≥ 80%
inhibition at 200 ppm [6]: ≥ 80%
inhibition at 200 ppm [9]: ≥ 80%

melting point: 251 to 252 °C
Compound: COc1ccccc1Cc1cccc(-c2ncc3c(n2)CC(C)(C)CC3)n1 [Compound 14, 2-[6-(2-methoxybenzyl)-pyridin-2-yl]-7,7-dimethyl-5,6,7,8-tetrahydroquinazoline]
inhibition at 200 ppm [8]: ≥ 80%
inhibition at 200 ppm [1]: ≥ 80%
inhibition at 200 ppm (Gaeumannomyces graminis): ≥ 80%
inhibition at 200 ppm [2]: ≥ 80%
inhibition at 200 ppm [4]: ≥ 80%
inhibition at 200 ppm [6]: ≥ 80%
pest or weed control at 200 ppm (Pyrenophora teres): ≥ 80%
inhibition at 200 ppm [9]: ≥ 80%

melting point: 219 to 220 °C
Compound: CC1(C)CCc2cnc(-c3cccc(Cc4cccc(Cl)c4)n3)nc2C1 [Compound 16]
inhibition at 200 ppm [1]: ≥ 80%
inhibition at 200 ppm [2]: ≥ 80%
inhibition at 200 ppm [4]: ≥ 80%
pest or weed control at 200 ppm [5]: ≥ 80%
inhibition at 200 ppm [6]: ≥ 80%
pest or weed control at 200 ppm (Pyrenophora teres): ≥ 80%
inhibition at 200 ppm [9]: ≥ 80%

melting point: 69 to 75 °C
Compound: O=C1CCCc2nc(-c3cccc(Cc4ccccc4)n3)ncc21 [Compound 20]
inhibition at 200 ppm [1]: ≥ 80%
inhibition at 200 ppm (Gaeumannomyces graminis): ≥ 80%
inhibition at 200 ppm [2]: ≥ 80%
inhibition at 200 ppm [4]: ≥ 80%
inhibition at 200 ppm [9]: ≥ 80%
